Some test systems named below: CAKI-1; CCRF-CEM; DU-145; HCC 2998; Hs-578T; K562; MCF7; MDA-N; MOLT-4; NCI-H522; NCI/ADR-RES; PC-3; SF-539; SK-MEL-5; SNB-19; SW-620; T47D; U-251; HT-29.
Common to all, as to assay: NCI-60 cell line screen, 48 h

Experimental findings from ChEMBL document CHEMBL1201862, “PubChem BioAssay data set” (2004) are described below.

Structures are written as SMILES.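 96-well plates; 48 h exposure; 5 concentrations. Endpoints by linear interpolation between flanking doses. Not reached: highest tested concentration assigned. GI50 is the concentration that inhibits growth by half.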 Activity calls are given as the source filed them. Rule as the data show it: active = GI50 up to about 1.1 µM and inactive = higher.

As to `N#C[BH2-][n+]1ccc(C(=O)NNCc2ccccc2)cc1`, the GI50 in the test on CAKI-1, in the test with CCRF-CEM, in the test with DU-145, with HCC 2998, with Hs-578T and in the test on K562 was > 100 µM (inactive) each time. The GI50 with MCF7, in the test with MDA-N, in the test on MOLT-4, with NCI-H522, in the test with NCI/ADR-RES and in the test with PC-3 was > 100 µM (inactive) each time. For the same molecule, the GI50 in the test with SF-539, in the test with SK-MEL-5, with SNB-19, in the test on SW-620, in the test with T47D and with U-251 was > 100 µM (inactive) throughout.

On to `CCN(CC)CCC(=O)c1ccc(C)cc1`, for which the GI50 was 10.1 µM (inactive) with CCRF-CEM; 39.6 µM (inactive) with DU-145; 43 µM (inactive) with HCC 2998; 20.8 µM (inactive) in the test on HT-29; 61.5 µM (inactive) in the test on Hs-578T; 14.9 µM (inactive) in the test on K562. Also, the GI50 in the test with MCF7 is 4.88 µM (inactive); with MDA-N, 20.7 µM (inactive); with MOLT-4 it was 18.5 µM (inactive); in the test on NCI-H522, 13.8 µM (inactive); in the test on NCI/ADR-RES, 25.5 µM (inactive); in the test with PC-3, 54.7 µM (inactive). Also, the GI50 in the test on SF-539 was 88.3 µM (inactive); with SK-MEL-5, 13.1 µM (inactive); in the test on SNB-19, > 100 µM (inactive); with SW-620 it was 17 µM (inactive); in the test with T47D it was 14.7 µM (inactive); in the test on U-251, > 100 µM (inactive).

With `CCCc1cc(=O)oc2c3c(c4c(c12)OC(C)(C)CC4)O[C@H](C)[C@@H](C)[C@H]3O`, the GI50 was 20.5 µM (inactive) in the test with CAKI-1; 14.1 µM (inactive) in the test with CCRF-CEM; 16.1 µM (inactive) with DU-145; 16.6 µM (inactive) in the test with HCC 2998; 10 µM (inactive) with HT-29; 22.6 µM (inactive) in the test with Hs-578T. Moreover, the GI50 in the test with K562 was 2.52 µM (inactive); in the test with MCF7 it was 16.3 µM (inactive); with MDA-N, 5.56 µM (inactive); in the test on MOLT-4, 12.4 µM (inactive); with NCI/ADR-RES, 11.2 µM (inactive); with PC-3, 10.1 µM (inactive). For the same molecule, the GI50 is 21.4 µM (inactive) in the test with SF-539; 15.1 µM (inactive) in the test on SK-MEL-5; 16.6 µM (inactive) in the test on SNB-19; 17 µM (inactive) in the test on SW-620; 12 µM (inactive) with T47D; 13.9 µM (inactive) in the test with U-251.

`OC1(C2(c3ccc(Cl)cc3)CCCC2)c2ccccc2C2=NCCN21` (centres undefined): the GI50 with CAKI-1 was 14.8 µM (inactive); with CCRF-CEM, 14.4 µM (inactive); in the test with DU-145 it was 0.0716 µM (active); in the test on HCC 2998, 2.4 µM (inactive); with HT-29, 10.8 µM (inactive); in the test on Hs-578T, 36.3 µM (inactive). The GI50 in the test on K562 is 4.81 µM (inactive); with MCF7, 17.5 µM (inactive); with MDA-N, 16.1 µM (inactive); in the test with MOLT-4 it was 13.3 µM (inactive); in the test with NCI-H522, 16.2 µM (inactive); in the test with NCI/ADR-RES it was 17.1 µM (inactive). The GI50 in the test with PC-3 was 11.9 µM (inactive); in the test on SK-MEL-5, 12.4 µM (inactive); in the test with SNB-19, 16.4 µM (inactive); in the test with SW-620 it was 22.8 µM (inactive); in the test with T47D, 6.43 µM (inactive); in the test with U-251, 14.2 µM (inactive).

As for `CC(C)c1cc(C(C)C)c(S(=O)(=O)N/N=C2\CC3CCC2(C)C3(C)C)c(C(C)C)c1` (centres undefined), the GI50 was 20.2 µM (inactive) with CAKI-1; 4.69 µM (inactive) in the test on CCRF-CEM; 18 µM (inactive) in the test with DU-145; 23.3 µM (inactive) with HCC 2998; 14.1 µM (inactive) with HT-29; 29.7 µM (inactive) in the test with Hs-578T. In addition, the GI50 was 8.53 µM (inactive) with K562; 10 µM (inactive) with MCF7; 15.1 µM (inactive) with MDA-N; 6.68 µM (inactive) in the test with MOLT-4; 5.37 µM (inactive) in the test with NCI-H522; 20.8 µM (inactive) in the test with NCI/ADR-RES. Further, the GI50 in the test on PC-3 is 18.3 µM (inactive); with SK-MEL-5, 14.5 µM (inactive); with SNB-19, 27.5 µM (inactive); with SW-620, 57.1 µM (inactive); in the test on T47D it was 11.8 µM (inactive); in the test on U-251, 23.3 µM (inactive).

As for `CC1CC[C@@]2(OC1)OC1CC3C4CCC5C[C@@H](OC6OC(CO)C(OC7OC(CO)C(O)C(OC8OC(CO)C(O)C(OC9OC(CO)C(O)C(O)C9O)C8O)C7OC7OC(CO)C(O)C(O)C7O)C(O)C6O)[C@H](O)C[C@]5(C)C4CC[C@]3(C)C1[C@@H]2C` (some centres undefined), the GI50 in the test with CAKI-1, in the test with CCRF-CEM, in the test with DU-145, in the test with HCC 2998, in the test on HT-29 and with Hs-578T was > 80.5 µM (inactive) throughout. Moreover, the GI50 with K562, in the test with MCF7, in the test with MDA-N, in the test with NCI/ADR-RES, in the test on PC-3 and in the test with SF-539 was > 80.5 µM (inactive) each time. Besides, the GI50 with SK-MEL-5, in the test with SNB-19, in the test on SW-620, in the test on T47D and with U-251 was > 80.5 µM (inactive) each time.

For `CC1(C)CC[C@]2(C(=O)O)[C@H](O)C[C@]3(C)C(=CC[C@@H]4[C@@]5(C)CC[C@H](OC6OC(C(=O)O)C(O)C(O)C6O)C(C)(C)[C@@H]5CC[C@]43C)[C@@H]2C1` (some centres undefined), the GI50 with CAKI-1 was > 100 µM (inactive); in the test on CCRF-CEM it was 36.9 µM (inactive); with DU-145, 96.4 µM (inactive); with HCC 2998, 27.2 µM (inactive); with HT-29, > 100 µM (inactive); in the test with Hs-578T it was 28.2 µM (inactive). Also, the GI50 is 95.9 µM (inactive) with K562; > 100 µM (inactive) in the test on MCF7; > 100 µM (inactive) with MDA-N; > 100 µM (inactive) in the test with MOLT-4; > 100 µM (inactive) in the test with NCI-H522; > 100 µM (inactive) with NCI/ADR-RES. Moreover, the GI50 with PC-3 was > 100 µM (inactive); in the test with SK-MEL-5 it was > 100 µM (inactive); in the test on SNB-19 it was 52.7 µM (inactive); in the test with SW-620, > 100 µM (inactive); with T47D, > 100 µM (inactive); in the test with U-251, 41 µM (inactive).

Regarding `C(=N\c1ccc(-c2nc3ccccc3[nH]2)cc1)/c1ccco1`, the GI50 was > 100 µM (inactive) with CAKI-1; 16.5 µM (inactive) in the test with CCRF-CEM; > 100 µM (inactive) in the test with DU-145; 76.4 µM (inactive) in the test on HCC 2998; > 100 µM (inactive) with HT-29; > 100 µM (inactive) in the test on Hs-578T. Besides, the GI50 in the test with K562 was 37.6 µM (inactive); in the test with MCF7 it was 21.1 µM (inactive); in the test on MDA-N it was 48.1 µM (inactive); in the test on MOLT-4 it was 29.3 µM (inactive); with NCI-H522, 53.1 µM (inactive); in the test on NCI/ADR-RES, 84.9 µM (inactive). The GI50 was 33.6 µM (inactive) with PC-3; 77.8 µM (inactive) in the test on SF-539; 25.5 µM (inactive) with SK-MEL-5; 89.1 µM (inactive) in the test with SW-620; 38.5 µM (inactive) in the test on T47D.

`CC(C)(C)C1=C(Br)C(OC(=O)C(F)(F)F)(C(C)(C)C)OP1(=O)c1ccccc1` (centres undefined): the GI50 is 0.0643 µM (active) in the test with CAKI-1; 45.2 µM (inactive) in the test on DU-145; 38.6 µM (inactive) in the test with HCC 2998; 37 µM (inactive) with HT-29; 23.7 µM (inactive) in the test on Hs-578T; 25.5 µM (inactive) in the test with K562. In addition, the GI50 was 42.7 µM (inactive) in the test with MCF7; 60.8 µM (inactive) in the test with MDA-N; 42.2 µM (inactive) in the test with NCI-H522; 35.1 µM (inactive) in the test on NCI/ADR-RES; 18.1 µM (inactive) with PC-3; 37.9 µM (inactive) in the test on SF-539. For the same molecule, the GI50 with SK-MEL-5 is 65.3 µM (inactive); in the test on SNB-19, 57.4 µM (inactive); in the test on T47D, 30 µM (inactive); in the test on U-251, 35.6 µM (inactive).

`O=C(/C=C/c1ccccc1)/C=N/N1C(=S)N(c2ccccc2)C(=N\c2ccccc2)/C1=N/c1ccccc1`: the GI50 in the test with CAKI-1, with DU-145, in the test on HCC 2998, in the test on HT-29, with Hs-578T and in the test on K562 was > 100 µM (inactive) each time. For the same molecule, the GI50 in the test on MCF7 was 33 µM (inactive); in the test on MDA-N it was 82.4 µM (inactive); in the test on MOLT-4, > 100 µM (inactive); with NCI-H522, 11.2 µM (inactive); with NCI/ADR-RES, > 100 µM (inactive); in the test with PC-3, > 100 µM (inactive). Moreover, the GI50 with SF-539, with SK-MEL-5, in the test with SNB-19, in the test on SW-620, in the test on T47D and in the test with U-251 was > 100 µM (inactive) throughout.

Turning to `O=C(CC(C(=O)c1ccc(F)cc1)c1ccsc1)c1cccs1` (centres undefined), the GI50 in the test with CAKI-1 is > 100 µM (inactive); in the test on CCRF-CEM, 68.9 µM (inactive); in the test with DU-145, > 100 µM (inactive); with HCC 2998, > 100 µM (inactive); in the test on HT-29, 59.2 µM (inactive); with Hs-578T, > 100 µM (inactive). In addition, the GI50 is > 100 µM (inactive) with K562; 82.2 µM (inactive) in the test on MCF7; 79.8 µM (inactive) in the test on MDA-N; 29.6 µM (inactive) in the test on MOLT-4; 96.4 µM (inactive) with NCI/ADR-RES; 57.9 µM (inactive) in the test with PC-3. For the same molecule, the GI50 was > 100 µM (inactive) in the test on SF-539; 62.4 µM (inactive) in the test on SK-MEL-5; > 100 µM (inactive) in the test on SNB-19; > 100 µM (inactive) with SW-620; 26.7 µM (inactive) in the test with T47D; > 100 µM (inactive) in the test on U-251.
